# Measurements from US12331026B2 (NiKang Therapeutics, Inc., priority 2022, dated 2025).
# Target: T1, CDK2 (Homo sapiens, UniProt P24941)
# T1 construct: endogenous in cells; host or cells: OVCAR3 cells
# Assay: Phospho-RB measurement in OVCAR3 cells (HTRF phospho-RB S807/811)
# Type: cell-based
# Conditions: phosphorylation of RB protein at S807/811, HTRF, 24 h compound treatment, 0.3 to 10,000 nM, read-out: pRb (uM)
# Method: The ability of compounds of Formula (I) to inhibit CDK2 was determined in OVCAR3 cells. Phosphorylation of RB protein at S807/811 were measured using HTRF phospho-RB cellular kits (Cat #64RBS807PEG) from Cisbio.
# On Day 1, OVCAR3 cells were seeded into 96-well tissue-culture treated plates at 20,000 cells/well in 200 μL and incubated overnight at 37° C. in CO2 atmosphere. On Day 2, the cells were treated with test compounds at concentrations from 0.3 to 10,000 nM using HP D300 digital dispenser. Twenty-four hours after compound treatment, cell culture media was removed by flicking the plate and tapping the plate against clean paper towel. Immediately 30 μL 1× lysis buffer was supplemented from the kit and the plate was incubated at room temperature on shaker for 30 min. After homogenization by pipetting up and down, 8 μL cell lysate from 96-well cell culture plate was transferred to 384-well small volume white detection plate. 2 μL premixed detection solution was added and the plate was covered with sealer. To prepare the detection solution, d2 conjugated-phospho-RB antibody and Eu-cryptate conjugated phosphor-RB antibody were diluted into detection buffer following manufacturer's instruction.
# Detection plates were incubated for 4 h at room temperature and read on ClarioStar (BMG Labtech) in TR-FRET mode ([…]). The TR-FRET ratio (665 nM1/620 nM) was plotted against the compound concentration and normalized to DMSO controls. Half maximal inhibition concentration (IC50) values are calculated with a four-parameter logistic fit using GraphPad Prism (version 8; La Jolla, CA).
row,Structure (SMILES),IC50 [µM]
1,"O=S1(=O)C[C@@H]2[C@H](C1)[C@@H]2Nc1nccc(-c2sc(N3C4CCC3CN(C3CC(F)(F)C3)C4)nc2-c2cccc(NS(=O)(=O)c3c(F)cccc3F)c2F)n1 [Example 106, N-(3-(2-(3-(3,3-difluorocyclobutyl)-3,8-diazabicyclo[3.2.1]octan-8-yl)-5-(2-(((1R,5S,6s)-3,3-dioxido-3-thiabicyclo[3.1.0]hexan-6-yl)amino)pyrimidin-4-yl)thiazol-4-yl)-2-fluorophenyl)-2,6-difluorobenzenesulfonamide]",0.68
2,"O=S1(=O)C[C@@H]2[C@H](C1)[C@H]2Nc1nccc(-c2sc(C34CC5CC(CC(C5)C3)C4)nc2-c2cccc(NS(=O)(=O)c3c(F)cccc3F)c2F)n1 [Example 77, N-(3-(2-((3R,5R,7R)-adamantan-1-yl)-5-(2-(((1R,5S,6r)-3,3-dioxido-3-thiabicyclo[3.1.0]hexan-6-yl)amino)pyrimidin-4-yl)thiazol-4-yl)-2-fluorophenyl)-2,6-difluorobenzenesulfonamide]",0.24
3,"O=S1(=O)CC2(CC(Nc3nccc(-c4sc(C56CC(F)(C5)C6)nc4-c4cccc(NS(=O)(=O)c5c(F)cccc5C(F)(F)F)c4F)n3)C2)C1 [Example 86, N-(3-(5-(2-((2,2-dioxido-2-thiaspiro[3.3]heptan-6-yl)amino)-pyrimidin-4-yl)-2-(3-fluorobicyclo[1.1.1]pentan-1-yl)thiazol-4-yl)-2-fluorophenyl)-2-fluoro-6-(trifluoromethyl)benzenesulfonamide]",0.04
4,"O=S1(=O)C[C@@H]2[C@H](C1)[C@H]2Nc1nccc(-c2sc(N3C4CCC3CN(C3CC(F)(F)C3)C4)nc2-c2cccc(NS(=O)(=O)c3c(F)cccc3C(F)(F)F)c2F)n1 [Example 109, N-(3-(2-(3-(3,3-difluorocyclobutyl)-3,8-diazabicyclo[3.2.1]octan-8-yl)-5-(2-(((1R,5S,6r)-3,3-dioxido-3-thiabicyclo[3.1.0]hexan-6-yl)amino)pyrimidin-4-yl)thiazol-4-yl)-2-fluorophenyl)-2-fluoro-6-(trifluoromethyl)benzenesulfonamide]",0.09
5,"O=S1(=O)CC2(CC(Nc3nccc(-c4sc(C5(C(F)F)CCC5)nc4-c4cccc(NS(=O)(=O)c5c(F)cccc5C(F)(F)F)c4F)n3)C2)C1 [Example 83, N-(3-(2-(1-(difluoromethyl)cyclobutyl)-5-(2-((2,2-dioxido-2-thiaspiro[3.3]heptan-6-yl)amino)pyrimidin-4-yl)thiazol-4-yl)-2-fluorophenyl)-2-fluoro-6-(trifluoromethyl)benzenesulfonamide]",0.04
6,"CS(=O)(=O)[C@H]1CC[C@H](Nc2nccc(-c3sc(C4(C(F)(F)F)CC4)nc3-c3cccc(NS(=O)(=O)c4c(F)cccc4C(F)(F)F)c3F)n2)CC1 [Example 104, 2-fluoro-N-(2-fluoro-3-(5-(2-(((1r,4r)-4-(methylsulfonyl)-cyclohexyl)amino)pyrimidin-4-yl)-2-(1-(trifluoromethyl)-cyclopropyl)thiazol-4-yl)phenyl)-6-(trifluoromethyl)benzenesulfonamide]",0.08
7,"O=S1(=O)C[C@@H]2[C@H](C1)[C@@H]2Nc1nccc(-c2sc(C34CC(C3)C4)nc2-c2cccc(NS(=O)(=O)c3c(F)cccc3C(F)(F)F)c2F)n1 [Example 102, N-(3-(2-(bicyclo[1.1.1]pentan-1-yl)-5-(2-(((1R,5S,6s)-3,3-dioxido-3-thiabicyclo[3.1.0]hexan-6-yl)amino)pyrimidin-4-yl)thiazol-4-yl)-2-fluorophenyl)-2-fluoro-6-(trifluoromethyl)benzenesulfonamide]",0.19
8,"COc1cccc(C(F)(F)F)c1S(=O)(=O)Nc1cccc(-c2nc(N3C4CCC3CN(C)C4)sc2-c2ccnc(NC3CC4(C3)CS(=O)(=O)C4)n2)c1F [Example 74, N-(3-(5-(2-((2,2-dioxido-2-thiaspiro[3.3]heptan-6-yl)amino)-pyrimidin-4-yl)-2-(3-methyl-3,8-diazabicyclo[3.2.1]octan-8-yl)thiazol-4-yl)-2-fluorophenyl)-2-methoxy-6-(trifluoromethyl)benzenesulfonamide]",0.63
9,"CS(=O)(=O)C1CCC(Nc2nccc(-c3sc(C45CC(Cl)(C4)C5)nc3-c3cccc(NS(=O)(=O)c4c(F)cccc4C(F)(F)F)c3F)n2)CC1 (stereo not drawn) [Example 8, N-(3-(2-(3-chlorobicyclo[1.1.1]pentan-1-yl)-5-(2-(((1s,4s)-4-(methylsulfonyl)cyclohexyl)amino)pyrimidin-4-yl)thiazol-4-yl)-2-fluorophenyl)-2-fluoro-6-(trifluoromethyl)benzenesulfonamide]",0.24
10,"COc1cccc(F)c1S(=O)(=O)Nc1cccc(-c2nc(C34CC(C3)C4)sc2-c2ccnc(NC3CC4(C3)CS(=O)(=O)C4)n2)c1F [Example 55, N-(3-(2-(bicyclo[1.1.1]pentan-1-yl)-5-(2-((2,2-dioxido-2-thiaspiro[3.3]heptan-6-yl)amino)pyrimidin-4-yl)thiazol-4-yl)-2-fluorophenyl)-2-fluoro-6-methoxybenzenesulfonamide]",1.35
11,"O=S1(=O)C[C@@H]2[C@H](C1)[C@@H]2Nc1nccc(-c2sc(N3C4CCC3CN(C3CC(F)(F)C3)C4)nc2-c2cccc(NS(=O)(=O)c3c(F)cccc3F)c2F)n1 [Example 94, N-(3-(2-(3-(3,3-difluorocyclobutyl)-3,8-diazabicyclo[3.2.1]octan-8-yl)-5-(2-(((1R,5S,6s)-3,3-dioxido-3-thiabicyclo[3.1.0]hexan-6-yl)amino)pyrimidin-4-yl)thiazol-4-yl)-2-fluorophenyl)-2,6-difluorobenzenesulfonamide]",0.28
12,"CN1CC2CCC(C1)N2c1nc(-c2cccc(NS(=O)(=O)c3c(F)cccc3OC(F)F)c2F)c(-c2ccnc(N[C@H]3[C@@H]4CS(=O)(=O)C[C@@H]43)n2)s1 [Example 122, 2-(difluoromethoxy)-N-(3-(5-(2-(((1R,5S,6r)-3,3-dioxido-3-thiabicyclo[3.1.0]hexan-6-yl)amino)pyrimidin-4-yl)-2-(3-methyl-3,8-diazabicyclo[3.2.1]octan-8-yl)thiazol-4-yl)-2-fluorophenyl)-6-fluorobenzenesulfonamide]",0.04
13,"CC1CC(C)N1c1nc(-c2cccc(NS(=O)(=O)c3c(F)cccc3F)c2F)c(-c2ccnc(NC3CC4(C3)CS(=O)(=O)C4)n2)s1 (stereo not drawn) [Example 71, N-(3-(2-(2,4-dimethylazetidin-1-yl)-5-(2-((2,2-dioxido-2-thiaspiro[3.3]heptan-6-yl)amino)pyrimidin-4-yl)thiazol-4-yl)-2-fluorophenyl)-2,6-difluorobenzenesulfonamide]",18.9
14,"O=S1(=O)CC2(CC(Nc3nccc(-c4sc(C56CC7CC(CC(C7)C5)C6)nc4-c4cccc(NS(=O)(=O)c5c(F)cccc5F)c4F)n3)C2)C1 [Example 6, N-(3-(2-((3r,5r,7r)-adamantan-1-yl)-5-(2-((2,2-dioxido-2-thiaspiro[3.3]heptan-6-yl)amino)pyrimidin-4-yl)thiazol-4-yl)-2-fluorophenyl)-2,6-difluorobenzenesulfonamide]",0.08
15,"[2H]C([2H])([2H])N1CC2CCC(C1)N2c1nc(-c2cccc(NS(=O)(=O)c3c(F)cccc3F)c2F)c(-c2ccnc(NC3CC4(C3)CS(=O)(=O)C4)n2)s1 [Example 137, N-(3-(5-(2-((2,2-dioxido-2-thiaspiro[3.3]heptan-6-yl)amino)-pyrimidin-4-yl)-2-(3-(methyl-d3)-3,8-diazabicyclo[3.2.1]octan-8-yl)thiazol-4-yl)-2-fluorophenyl)-2,6-difluorobenzenesulfonamide]",0.1
16,"O=S1(=O)CC2(CC(Nc3nccc(-c4sc(C56CC(C5)C6)nc4-c4cccc(NS(=O)(=O)c5c(F)cccc5C5CC5)c4F)n3)C2)C1 [Example 41, N-(3-(2-(bicyclo[1.1.1]pentan-1-yl)-5-(2-((2,2-dioxido-2-thiaspiro[3.3]heptan-6-yl)amino)pyrimidin-4-yl)thiazol-4-yl)-2-fluorophenyl)-2-cyclopropyl-6-fluorobenzenesulfonamide]",0.36
17,"CC1(O)CC(N2CC3CCC(C2)N3c2nc(-c3cccc(NS(=O)(=O)c4c(F)cccc4F)c3F)c(-c3ccnc(NC4CC5(C4)CS(=O)(=O)C5)n3)s2)C1 (stereo not drawn) [Example 46, N-(3-(5-(2-((2,2-dioxido-2-thiaspiro[3.3]heptan-6-yl)amino)-pyrimidin-4-yl)-2-(3-(3-hydroxy-3-methylcyclobutyl)-3,8-diazabicyclo[3.2.1]octan-8-yl)thiazol-4-yl)-2-fluorophenyl)-2,6-difluorobenzenesulfonamide]",1.36
18,"O=S1(=O)CC2(CC(Nc3nccc(-c4sc(C5(C(F)(F)F)CC5)nc4-c4cccc(NS(=O)(=O)c5c(F)cccc5C(F)(F)F)c4F)n3)C2)C1 [Example 85, N-(3-(5-(2-((2,2-dioxido-2-thiaspiro[3.3]heptan-6-yl)amino)-pyrimidin-4-yl)-2-(1-(trifluoromethyl)cyclopropyl)thiazol-4-yl)-2-fluorophenyl)-2-fluoro-6-(trifluoromethyl)benzenesulfonamide]",0.03
